Test: Cytotoxicity against mouse […] cells
Assay type: functional, cell-based

Compound	IC50
COC(=O)[C@]1(C)[C@@H]2CC[C@]3(C)/C(=C(/C)C=O)C(=O)C[C@@H]3[C@@]2(C)CC[C@H]1OC(C)=O	> 3.3 µg/mL
COC(=O)[C@]1(C)[C@@H]2CC[C@]3(C)\C(=C(C)/C=C/C=C(C)/C=C/C=O)C(=O)C[C@@H]3[C@@]2(C)CC[C@H]1OC(C)=O	> 3.3 µg/mL
COC(=O)[C@]1(C)[C@@H]2CC[C@]3(C)\C(=C(C)/C=C/C=C(\C)C=O)C(=O)C[C@@H]3[C@@]2(C)CC[C@H]1OC(C)=O	> 3.3 µg/mL
COC(=O)[C@]1(C)[C@@H]2CC[C@]3(C)\C(=C(C)/C=C/C=C(\C)C(/C=C/C(C)(C)O)OC)C(=O)C[C@@H]3[C@@]2(C)CC[C@H]1OC(C)=O (some centres not stated) [GLOBOSTELLATIC ACD B METHYL ESTER]	> 3.3 µg/mL
COC(=O)[C@]1(C)[C@@H]2CC[C@]3(C)\C(=C(C)/C=C/C=C(C)/C=C/C(OC)C(C)(C)O)C(=O)C[C@@H]3[C@@]2(C)CC[C@H]1OC(C)=O (some centres not stated) [GLOBOSTELLATIC ACD C METHYL ESTER]	> 3.3 µg/mL
COC(=O)/C(C)=C1\C(=O)C[C@@H]2[C@@]3(C)CC[C@@H](OC(C)=O)[C@](C)(C(=O)OC)[C@@H]3CC[C@]12C [JASPIFEROIC ACID A DIMETHYL ESTER]	> 3.3 µg/mL
COC(=O)/C=C/C(C)=C1/C(=O)C[C@@H]2[C@@]3(C)CC[C@@H](OC(C)=O)[C@](C)(C(=O)OC)[C@@H]3CC[C@]12C [JASPIFEROIC ACID B DIMETHYL ESTER]	> 3.3 µg/mL

— ChEMBL document CHEMBL1142641, “New isomalabaricane derivatives from a new species of Jaspis sponge collected at the Vanuatu islands” (J Nat Prod, 2000)
